Results from ChEMBL document CHEMBL1201862, “PubChem BioAssay data set” (2004).
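The compound was tested at five concentrations on cells cultured in 96-well plates, with a 48-hour exposure period. Here, GI50 denotes the concentration required for 50% inhibition of growth.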 Active and inactive are the calls of the source. No stated cut-off is given here; in the data, active = GI50 up to about 1.1 µM and inactive = higher.

How the values were obtained:
Test in all cases: inhibition of tumour cell growth, NCI panel, 48 h
SK-MEL-28 = test system: SK-MEL-28
KM12 = test system: KM12
HOP-92 = test system: HOP-92
IGROV-1 = test system: IGROV-1
A549 = test system: A549
786-0 = test system: 786-0
OVCAR-8 = test system: OVCAR-8
RXF 393 = test system: RXF 393
SK-OV-3 = test system: SK-OV-3
OVCAR-5 = test system: OVCAR-5
SF-295 = test system: SF-295
NCI-H226 = test system: NCI-H226
U-251 = test system: U-251
NCI-H522 = test system: NCI-H522
K562 = test system: K562
Malme-3M = test system: Malme-3M
HL-60 = test system: HL-60
SR = test system: SR

| Structure (SMILES) | GI50 (SK-MEL-28) | GI50 (KM12) | GI50 (HOP-92) | GI50 (IGROV-1) | GI50 (A549) | GI50 (786-0) | GI50 (OVCAR-8) | GI50 (RXF 393) | GI50 (SK-OV-3) | GI50 (OVCAR-5) | GI50 (SF-295) | GI50 (NCI-H226) | GI50 (U-251) | GI50 (NCI-H522) | GI50 (K562) | GI50 (Malme-3M) | GI50 (HL-60) | GI50 (SR) |
| --- | --- | --- | --- | --- | --- | --- | --- | --- | --- | --- | --- | --- | --- | --- | --- | --- | --- | --- |
| COC(=O)c1sc(C(=O)OC)c2c1C[S+]([O-])C2 | > 100 µM (inactive) | > 100 µM (inactive) | > 100 µM (inactive) | > 100 µM (inactive) | > 100 µM (inactive) | > 100 µM (inactive) | > 100 µM (inactive) | > 100 µM (inactive) | > 100 µM (inactive) | > 100 µM (inactive) | > 100 µM (inactive) | > 100 µM (inactive) | > 100 µM (inactive) | > 100 µM (inactive) | > 100 µM (inactive) | > 100 µM (inactive) | > 100 µM (inactive) |  |
| CC1=C2C(O)C(C(C)C(=O)NCC(C)C)CCC2(C)C=CC1=O (stereo not given) | > 100 µM (inactive) | > 100 µM (inactive) | > 100 µM (inactive) | > 100 µM (inactive) | > 100 µM (inactive) |  | > 100 µM (inactive) | > 100 µM (inactive) |  | > 100 µM (inactive) | > 100 µM (inactive) | > 100 µM (inactive) | > 100 µM (inactive) | > 100 µM (inactive) | > 100 µM (inactive) |  | > 100 µM (inactive) |  |
| CN(C)c1ccc(O[Si](Oc2ccc(N(C)C)cc2)(Oc2ccc(N(C)C)cc2)Oc2ccc(N(C)C)cc2)cc1 | > 100 µM (inactive) | 71.6 µM (inactive) | > 100 µM (inactive) | > 100 µM (inactive) | > 100 µM (inactive) | > 100 µM (inactive) | 52.8 µM (inactive) |  | > 100 µM (inactive) | > 100 µM (inactive) | 86.3 µM (inactive) | > 100 µM (inactive) | 89.3 µM (inactive) | 25.7 µM (inactive) | > 100 µM (inactive) | > 100 µM (inactive) | 32.9 µM (inactive) | > 100 µM (inactive) |
| CCCCCCCC(=O)OC(COC(=O)Cc1ccccc1)COC(=O)C(C)(C)C (stereo not given) | > 100 µM (inactive) |  | 32.8 µM (inactive) | > 100 µM (inactive) | > 100 µM (inactive) | > 100 µM (inactive) | > 100 µM (inactive) |  | > 100 µM (inactive) | > 100 µM (inactive) | > 100 µM (inactive) | > 100 µM (inactive) | > 100 µM (inactive) |  | 52.4 µM (inactive) | > 100 µM (inactive) | 51.6 µM (inactive) | 64 µM (inactive) |
| O=C(/N=C(/Nc1ccccc1)SCS/C(=N\C(=O)c1ccco1)Nc1ccccc1)c1ccco1 | > 100 µM (inactive) | > 100 µM (inactive) | 18.7 µM (inactive) | 63.4 µM (inactive) | 41.5 µM (inactive) | 35.2 µM (inactive) | 50.6 µM (inactive) | 15.1 µM (inactive) |  | > 100 µM (inactive) | 26.5 µM (inactive) | 28 µM (inactive) | 32 µM (inactive) | 27.4 µM (inactive) | > 100 µM (inactive) | > 100 µM (inactive) |  |  |
| Cc1ccc2nc(/C(=C/c3ccc(/C=C(\NC(=O)c4ccccc4)c4nc5ccc(C)cc5[nH]4)c(C)c3)NC(=O)c3ccccc3)[nH]c2c1 | 25.2 µM (inactive) | 17.1 µM (inactive) | 16.4 µM (inactive) | 1.81 µM (inactive) | 6.14 µM (inactive) | 9.02 µM (inactive) | 7.01 µM (inactive) |  | 13.7 µM (inactive) | 19.6 µM (inactive) |  | 26.4 µM (inactive) | 22.7 µM (inactive) | 22.2 µM (inactive) | 0.785 µM (active) | 7.29 µM (inactive) |  | 27.2 µM (inactive) |
| CCN(CC)c1ccc(/N=N\c2ccc(-c3nc4ccc[n+](C)c4s3)cc2)cc1 |  | 2.76 µM (inactive) | 10.6 µM (inactive) | 8.18 µM (inactive) | 4.2 µM (inactive) | 17.1 µM (inactive) | 8.57 µM (inactive) | > 10 µM (inactive) | 16.1 µM (inactive) | 17.1 µM (inactive) | 17.8 µM (inactive) | 6.5 µM (inactive) | 4.07 µM (inactive) | 3.06 µM (inactive) | 2.4 µM (inactive) | 6.11 µM (inactive) | 1.77 µM (inactive) | 4.5 µM (inactive) |
| C#CCC[C@@H]1O[C@@]1(C)CC/C=C(\C)CC/C=C/C=O |  | 36.9 µM (inactive) | 28.5 µM (inactive) | 22.1 µM (inactive) | 43.6 µM (inactive) | 73.5 µM (inactive) | 18.6 µM (inactive) | 40.6 µM (inactive) | > 100 µM (inactive) | > 100 µM (inactive) | 26.5 µM (inactive) | 60.3 µM (inactive) | 22 µM (inactive) |  | 22.6 µM (inactive) | 20 µM (inactive) | 23.9 µM (inactive) | 26.4 µM (inactive) |
| CN(C)CCC1(C2=CCCC2)CC/C(=C\c2ccc3c(c2)OCO3)C1=O (stereo not given) | 14.3 µM (inactive) | 15.8 µM (inactive) | 11.4 µM (inactive) | > 10 µM (inactive) | 16 µM (inactive) | 14 µM (inactive) | 15.6 µM (inactive) | 9.14 µM (inactive) |  | 15.8 µM (inactive) | 16 µM (inactive) |  | 15.6 µM (inactive) |  | 11.5 µM (inactive) | 15.6 µM (inactive) | 14.3 µM (inactive) |  |
